This is an account of results in US20120045393A1 (priority 2009, published 2012).

Like-named read-outs stand apart in the source and are kept apart here. Non-standard residues stand in square brackets, D forms with d. Residues, ends and D or L forms follow the SMILES beside them. *: point of attachment. DOTA = O=C(O)CN1CCN(CC(=O)O)CCN(CC(=O)*)CCN(CC(=O)O)CC1; Bpa = N[C@@H](Cc1ccc(C(=O)c2ccccc2)cc1)C(=O)O; d2Nal = N[C@H](Cc1ccc2ccccc2c1)C(=O)O; azaGly = NNC(=O)O; Sar = CNCC(=O)O

For the test, the system named is LHRH binding sites on human ovarian cancer cells (EFO-27).
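Also: Cell-associated radioactivity on confluent EFO-27 monolayers in 96-well plates, measured by microplate scintillation counting.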

Consider `CNCC(=O)N[C@@H](CCCNC(=N)N)C(=O)N[C@@H](Cc1c[nH]c2ccccc12)C(=O)N[C@@H](CO)C(=O)N[C@@H](Cc1c[nH]cn1)C(=O)N[C@H](CCCNC(=N)N)C(=O)N[C@@H](Cc1c[nH]c2ccccc12)C(=O)N[C@@H](Cc1ccc(C(=O)c2ccccc2)cc1)C(=O)N1CCC[C@H]1C(=O)NCCCCCNC(=O)CN1CCN(CC(=O)O)CCN(CC(=O)O)CCN(CC(=O)O)CC1` [compound 3085], for which the EC50 (in general, the concentration at which the effect is half-maximal) was 400 ± 250 nM.
On the same count and under the same terms, the result for `CN(CC(=O)N[C@@H](Cc1c[nH]cn1)C(=O)N[C@@H](Cc1c[nH]c2ccccc12)C(=O)N[C@@H](CO)C(=O)N[C@@H](Cc1c[nH]cn1)C(=O)N[C@H](CCCNC(=N)N)C(=O)N[C@@H](Cc1c[nH]c2ccccc12)C(=O)N[C@H](C(=O)N1CCC[C@H]1C(=O)NNC(N)=O)C(c1ccccc1)c1ccccc1)C(=O)CN1CCN(CC(=O)O)CCN(CC(=O)O)CCN(CC(=O)O)CC1` [BRU-2721] reads 4550 nM; that for `N=C(N)NCCC[C@H](NC(=O)[C@@H](Cc1ccc2ccccc2c1)NC(=O)CN1CCN(CC(=O)O)CCN(CC(=O)O)CCN(CC(=O)O)CC1)C(=O)N[C@@H](Cc1c[nH]c2ccccc12)C(=O)N[C@@H](CO)C(=O)N[C@@H](Cc1c[nH]cn1)C(=O)N[C@H](CCCNC(=N)N)C(=O)N[C@@H](Cc1c[nH]c2ccccc12)C(=O)N[C@@H](Cc1ccc(C(=O)c2ccccc2)cc1)C(=O)N1CCC[C@H]1C(=O)NCCCO` [compound 2982], 1130 nM; that for `CN(CC(=O)N[C@@H](Cc1c[nH]cn1)C(=O)N[C@@H](Cc1c[nH]c2ccccc12)C(=O)N[C@@H](CO)C(=O)N[C@@H](Cc1c[nH]cn1)C(=O)N[C@H](CCCNC(=N)N)C(=O)N[C@@H](Cc1c[nH]c2ccccc12)C(=O)N[C@@H](Cc1ccc(Oc2ccc(O)cc2)cc1)C(=O)N1CCC[C@H]1C(=O)NNC(N)=O)C(=O)CN1CCN(CC(=O)O)CCN(CC(=O)O)CCN(CC(=O)O)CC1` [BRU-2823], 1610 nM.
The same measure, in the same setting: the result for `N=C(N)NCCC[C@H](NC(=O)[C@@H](Cc1ccc2ccccc2c1)NC(=O)CN1CCN(CC(=O)O)CCN(CC(=O)O)CCN(CC(=O)O)CC1)C(=O)N[C@@H](Cc1c[nH]c2ccccc12)C(=O)N[C@@H](CO)C(=O)N[C@@H](Cc1c[nH]cn1)C(=O)N[C@H](CCCNC(=N)N)C(=O)N[C@@H](Cc1c[nH]c2ccccc12)C(=O)N[C@@H](Cc1ccc(C(=O)c2ccccc2)cc1)C(=O)O` [compound 3064] ({DOTA}-[d2Nal]RWSH[dR]W[Bpa]-OH; N-terminus assumed) reads 670 nM.
Consider `CN(CC(=O)N[C@@H](Cc1c[nH]cn1)C(=O)N[C@@H](Cc1c[nH]c2ccccc12)C(=O)N[C@@H](CO)C(=O)N[C@@H](Cc1c[nH]cn1)C(=O)N[C@H](Cc1c[nH]c2ccccc12)C(=O)N[C@@H](Cc1c[nH]c2ccccc12)C(=O)N[C@@H](Cc1ccc(C(=O)c2ccccc2)cc1)C(=O)N1CCC[C@H]1C(=O)NNC(N)=O)C(=O)CN1CCN(CC(=O)O)CCN(CC(=O)O)CCN(CC(=O)O)CC1` [compound 2731] ({DOTA}-[Sar]HWSH[dW]W[Bpa]P[azaGly]-NH2), for which, where the note is “EFO-27 cells, competition with [125I-Tyr8]BRU-2477, 90 min”, a half-maximal response (EC50) required 1360 nM.
`CC(C)NCCCC[C@H](NC(=O)[C@H](Cc1c[nH]c2ccccc12)NC(=O)[C@@H](CCCNC(=N)N)NC(=O)[C@H](Cc1c[nH]cn1)NC(=O)[C@H](CO)NC(=O)[C@H](Cc1c[nH]c2ccccc12)NC(=O)[C@H](Cc1c[nH]cn1)NC(=O)CN(C)C(=O)CN1CCN(CC(=O)O)CCN(CC(=O)O)CCN(CC(=O)O)CC1)C(=O)N1CCC[C@H]1C(=O)NNC(N)=O` [BRU-2675]: the EC50 amounted to 12300 nM.
In turn, `N=C(N)NCCC[C@@H](NC(=O)[C@H](Cc1c[nH]cn1)NC(=O)[C@H](CO)NC(=O)[C@H](Cc1c[nH]c2ccccc12)NC(=O)[C@H](Cc1c[nH]cn1)NC(=O)[C@@H]1CCCN1C(=O)CNC(=O)CN1CCN(CC(=O)O)CCN(CC(=O)O)CCN(CC(=O)O)CC1)C(=O)N[C@@H](Cc1c[nH]c2ccccc12)C(=O)N[C@@H](Cc1ccc(C(=O)c2ccccc2)cc1)C(=O)N1CCC[C@H]1C(=O)NNC(N)=O` [BRU-2667] ({DOTA}-GPHWSH[dR]W[Bpa]P[azaGly]-NH2) yielded an EC50 (Table 5: modifications of amino acids at positions 1 and 2, in vitro binding on EFO-27 cells) of 7290 nM.
